Holding throughout (experiment): growth of human tumour cells (NCI), 48 h
For test [1], the system named is PC-3.
Test [2] concerns SW-620.
For test [3], the system named is CCRF-CEM.
Test [4] deals with OVCAR-8.
For test [5], the system named is A549.
The test system of test [6] is HOP-92.
For test [7], the system named is IGROV-1.
The subject of test [8] is M14.
For test [9], the system named is SNB-19.
Test [10] deals with UACC-257.
For test [11], the system named is ACHN.
In test [12] the test system is TK-10.
Test [13] has as its system RPMI-8226.
Test [14] concerns SK-MEL-2.
Test [15] has as its system SR.
Test [16] relates to EKVX.
Test [17] relates to HCC 2998.
Test [18] deals with OVCAR-3.
Test [19] concerns UACC-62.
The test system of test [20] is T47D.

Molecules are shown by their SMILES.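 Briefly, cells in 96-well plates were exposed to five compound concentrations for 48 h, and endpoints were estimated by linear interpolation. The concentration for 50% growth inhibition is given as GI50.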 Active and inactive are the calls of the source. Rule as the data show it: active = GI50 up to about 1.1 µM and inactive = higher.

`O=c1[nH]c(=O)n(COCCO)c2ccsc12`: the GI50 in [1], in test [2], in test [3], in test [4], in [5] and in test [6] was > 100 µM (inactive) each time. The GI50 in test [7] was > 100 µM (inactive); in test [8], > 100 µM (inactive); in test [9] it was 32.4 µM (inactive); in test [10], > 100 µM (inactive); in test [11], > 100 µM (inactive); in test [12] it was > 100 µM (inactive). In addition, the GI50 in test [13], in test [14], in test [15], in test [16], in test [17] and in test [18] was > 100 µM (inactive) each time.
Consider `COC(=O)c1c(C)cccc1C1CN=NC12Cc1cc(C)cc(C)c1C2=O` (stereo not given), for which the GI50 in test [1] is 30.1 µM (inactive); in [2], 48.5 µM (inactive); in [3] it was 23 µM (inactive); in test [4] it was 54.1 µM (inactive); in test [19], 70.6 µM (inactive); in [5], 37.1 µM (inactive). In addition, the GI50 in test [6] is 20.4 µM (inactive); in test [7] it was 57.7 µM (inactive); in [8], 46.1 µM (inactive); in test [9] it was 73.3 µM (inactive); in [10], 22.9 µM (inactive); in test [11], 41.5 µM (inactive). The GI50 was 32.4 µM (inactive) in test [12]; 27.7 µM (inactive) in [14]; 39.2 µM (inactive) in test [16]; 22.9 µM (inactive) in test [17]; 30.2 µM (inactive) in test [20]; 28.9 µM (inactive) in test [18].
With `COc1ccccc1NS(=O)(=O)c1ccc2ncn(NS(=O)(=O)c3ccc(Cl)cc3)c(=O)c2c1`, the GI50 was 5.51 µM (inactive) in [1]; > 100 µM (inactive) in test [2]; 54.7 µM (inactive) in test [3]; > 100 µM (inactive) in test [4]; 39.1 µM (inactive) in test [19]; 75 µM (inactive) in test [5]. Moreover, the GI50 in [6] is > 100 µM (inactive); in test [7], > 100 µM (inactive); in test [8], 5.86 µM (inactive); in test [9] it was > 100 µM (inactive); in test [10] it was > 100 µM (inactive); in test [11] it was > 100 µM (inactive). Also, the GI50 in test [12] was > 100 µM (inactive); in [13] it was 26.9 µM (inactive); in test [14], 45.2 µM (inactive); in [15], 63.8 µM (inactive); in [16], > 100 µM (inactive); in test [17], > 100 µM (inactive). Also, in test [18], the GI50 is > 100 µM (inactive).
For `COC(=O)[C@H](Cc1ccc(OC(C)(C)C)cc1)N[C@H](C)C(=O)N[C@@H](Cc1ccccc1)C(=O)OCc1ccccc1`, the GI50 in test [1] was 61.7 µM (inactive); in test [2], > 100 µM (inactive); in [3], 40.2 µM (inactive); in test [4], 52.2 µM (inactive); in test [19], > 100 µM (inactive); in test [5], 46.6 µM (inactive). The GI50 in test [6] is > 100 µM (inactive); in [7], > 100 µM (inactive); in test [8], 52.4 µM (inactive); in test [9], > 100 µM (inactive); in test [10] it was > 100 µM (inactive); in [11], 93.1 µM (inactive). The GI50 was > 100 µM (inactive) in test [12]; 37.8 µM (inactive) in [13]; 26.2 µM (inactive) in [15]; > 100 µM (inactive) in test [16]; > 100 µM (inactive) in test [17]; 86.3 µM (inactive) in test [18].
For the compound `COC(=O)Cc1c([C@H]2[C@H](CC(=O)OC)c3ccccc3N2C(C)=O)[nH]c2ccccc12`, the GI50 was 80 µM (inactive) in [1]; > 100 µM (inactive) in test [2]; 67.5 µM (inactive) in [3]; > 100 µM (inactive) in test [4]; > 100 µM (inactive) in test [19]; 97.7 µM (inactive) in test [5]. The GI50 in [6] is > 100 µM (inactive); in [7], 34.4 µM (inactive); in test [8], > 100 µM (inactive); in test [9], > 100 µM (inactive); in test [10], > 100 µM (inactive); in test [11], > 100 µM (inactive). The GI50 is > 100 µM (inactive) in [12]; 33.6 µM (inactive) in test [13]; > 100 µM (inactive) in test [14]; > 100 µM (inactive) in [16]; > 100 µM (inactive) in [20]; > 100 µM (inactive) in [18].
Regarding `COc1cc(Nc2nc3cc(C(F)(F)F)ccc3nc2C(=O)O)cc(OC)c1OC`, the GI50 was 71.9 µM (inactive) in test [2]; 29.4 µM (inactive) in test [3]; 43.8 µM (inactive) in [4]; 39.8 µM (inactive) in test [19]; 64.4 µM (inactive) in test [5]; 29.6 µM (inactive) in test [6]. The GI50 in test [7] is 66.1 µM (inactive); in [8], 40.6 µM (inactive); in test [9], 41.5 µM (inactive); in test [10] it was > 100 µM (inactive); in [11], 65.6 µM (inactive); in test [12] it was 51.3 µM (inactive). Also, the GI50 was 19.1 µM (inactive) in [14]; 33.3 µM (inactive) in test [16]; 61 µM (inactive) in test [17]; 22.5 µM (inactive) in test [20]; 29.7 µM (inactive) in [18].
For the compound `NC(=O)C(=CN1C(=O)CC(=O)NC1=S)C(N)=O`, the GI50 in test [2], in [4], in test [5], in test [6], in test [7] and in test [8] was > 100 µM (inactive) throughout. Besides, the GI50 in test [9], in test [10], in test [11], in test [12], in test [14] and in test [16] was > 100 µM (inactive) throughout. Moreover, the GI50 in test [17], in test [20] and in test [18] was > 100 µM (inactive) throughout.
`CC(=O)OC/C=C/Cn1ncc(=O)[nH]c1=O`: the GI50 in test [1] was > 100 µM (inactive); in [2], > 100 µM (inactive); in [3] it was > 10 µM (inactive); in test [4], > 100 µM (inactive); in test [5], > 100 µM (inactive); in test [6] it was > 100 µM (inactive). The GI50 in test [7], in test [8], in [9], in test [11], in [13] and in test [14] was > 100 µM (inactive) each time. Besides, the GI50 in [16], in test [17], in [20] and in test [18] was > 100 µM (inactive) throughout.
On to `Cc1ccc2[nH]c3[nH]c(=O)[nH]c(=O)c3c2c1`, for which the GI50 in test [2], in test [3], in test [4], in test [19], in [5] and in test [6] was > 100 µM (inactive) each time. Further, the GI50 in test [7], in [8], in test [9], in test [10], in test [11] and in test [12] was > 100 µM (inactive) throughout. Further, the GI50 in test [13] is > 100 µM (inactive); in test [14] it was > 100 µM (inactive); in test [15], > 10 µM (inactive); in [16], > 100 µM (inactive); in test [20] it was > 100 µM (inactive); in test [18], > 100 µM (inactive).
With `COC(=O)c1ccc(NCC2=CC(=O)C=CC2=O)cc1`, the GI50 was 12.6 µM (inactive) in [1]; 3.75 µM (inactive) in [2]; 1.67 µM (inactive) in test [3]; 13.9 µM (inactive) in test [4]; 14.6 µM (inactive) in test [19]; 22.7 µM (inactive) in test [5]. In addition, the GI50 in test [6] is 3.43 µM (inactive); in test [7], 16.7 µM (inactive); in test [8] it was 4.06 µM (inactive); in [9], 14.8 µM (inactive); in [10], 12.4 µM (inactive); in test [11], 14 µM (inactive). Moreover, the GI50 is 10.8 µM (inactive) in [12]; 2.59 µM (inactive) in test [13]; 15.3 µM (inactive) in test [14]; 5.26 µM (inactive) in [15]; 10.6 µM (inactive) in test [16]; 21.6 µM (inactive) in test [17]. Further, the GI50 in test [18] was 1.79 µM (inactive).
Turning to `COc1c2c(cc3nc4ccccc4nc13)CC[C@H](NC(C)=O)c1cc(=O)c(SC)ccc1-2`, the GI50 in [1] was 0.614 µM (active); in test [2], 0.582 µM (active); in test [3], 0.532 µM (active); in test [4] it was 1.63 µM (inactive); in test [19], 0.437 µM (active); in test [5], 4.29 µM (inactive). Besides, the GI50 was 5.75 µM (inactive) in [6]; 0.236 µM (active) in test [7]; 0.55 µM (active) in [8]; 0.446 µM (active) in test [9]; 1.59 µM (inactive) in [10]; 4.15 µM (inactive) in [11]. Moreover, the GI50 in [12] was 8.07 µM (inactive); in [13] it was 0.538 µM (active); in test [14], 3.05 µM (inactive); in [15] it was 0.322 µM (active); in test [16], 1.01 µM (active); in [17], 1.25 µM (inactive). Further, the GI50 in test [18] is 0.785 µM (active).

Values taken from ChEMBL document CHEMBL1201862, “PubChem BioAssay data set” (2004).
